Data from the NIST ThermoML archive (doi:10.1021/je700260f).
Numbers after ± are expanded uncertainties.

Conditions: 293.15 K, Liquid, Vibrating tube method

FC(C(F)(F)F)C(F)(F)F [1,1,1,2,3,3,3-heptafluoropropane]
Conditions | mass density [kg/m3]
15639 kPa | 1490.9 ± 1.6
15672 kPa | 1490.8 ± 1.6
15719 kPa | 1491.1 ± 1.6
15747 kPa | 1491.3 ± 1.6
15777 kPa | 1491.4 ± 1.6
15814 kPa | 1491.4 ± 1.6
15837 kPa | 1491.6 ± 1.6
15880 kPa | 1491.9 ± 1.6
15913 kPa | 1492 ± 1.6
15942 kPa | 1492.2 ± 1.6
15975 kPa | 1492.2 ± 1.6
16018 kPa | 1492.4 ± 1.6
16046 kPa | 1492.3 ± 1.6
16079 kPa | 1492.7 ± 1.6
16118 kPa | 1492.8 ± 1.6
16153 kPa | 1493 ± 1.6
16181 kPa | 1493.1 ± 1.6
16215 kPa | 1493.2 ± 1.6
16244 kPa | 1493.2 ± 1.6
16277 kPa | 1493.6 ± 1.6
16315 kPa | 1493.7 ± 1.6
16344 kPa | 1493.7 ± 1.6
16377 kPa | 1493.9 ± 1.6
16411 kPa | 1493.9 ± 1.6
16446 kPa | 1494.1 ± 1.6
16474 kPa | 1494.1 ± 1.6
16503 kPa | 1494.3 ± 1.6
16532 kPa | 1494.4 ± 1.6
16734 kPa | 1495.3 ± 1.6
16772 kPa | 1495.4 ± 1.6
16831 kPa | 1495.6 ± 1.6
16865 kPa | 1495.9 ± 1.6
16904 kPa | 1496 ± 1.6
16934 kPa | 1496.2 ± 1.6
16964 kPa | 1496.2 ± 1.6
16998 kPa | 1496.3 ± 1.6
17038 kPa | 1496.5 ± 1.6
17068 kPa | 1496.6 ± 1.6
17113 kPa | 1496.7 ± 1.6
17158 kPa | 1497 ± 1.6
17183 kPa | 1497.1 ± 1.6
17228 kPa | 1497.2 ± 1.6
17263 kPa | 1497.4 ± 1.6
17293 kPa | 1497.5 ± 1.6
17334 kPa | 1497.7 ± 1.6
17375 kPa | 1497.8 ± 1.6
17405 kPa | 1498 ± 1.6
17450 kPa | 1498.2 ± 1.6
17485 kPa | 1498.2 ± 1.6
17520 kPa | 1498.5 ± 1.6
17555 kPa | 1498.5 ± 1.6
17654 kPa | 1498.9 ± 1.6
17694 kPa | 1499.1 ± 1.6
17726 kPa | 1499.2 ± 1.6
17756 kPa | 1499.4 ± 1.6
17801 kPa | 1499.4 ± 1.6
17831 kPa | 1499.5 ± 1.6
17856 kPa | 1499.6 ± 1.6
17902 kPa | 1499.9 ± 1.6
17933 kPa | 1499.9 ± 1.6
17969 kPa | 1500.2 ± 1.6
18004 kPa | 1500.4 ± 1.6
18044 kPa | 1500.5 ± 1.6
18075 kPa | 1500.4 ± 1.6
18124 kPa | 1500.8 ± 1.6
18164 kPa | 1500.9 ± 1.6
18194 kPa | 1501.1 ± 1.6
18235 kPa | 1501.3 ± 1.6
18276 kPa | 1501.4 ± 1.6
18313 kPa | 1501.5 ± 1.6
18349 kPa | 1501.6 ± 1.6
18391 kPa | 1501.8 ± 1.6
18428 kPa | 1502 ± 1.6
18459 kPa | 1502 ± 1.6
18502 kPa | 1502.3 ± 1.6
18544 kPa | 1502.5 ± 1.6
18574 kPa | 1502.5 ± 1.6
18611 kPa | 1502.7 ± 1.6
18650 kPa | 1502.7 ± 1.6
18678 kPa | 1502.9 ± 1.6
18720 kPa | 1503.1 ± 1.6
18753 kPa | 1503.1 ± 1.6
18785 kPa | 1503.3 ± 1.6
18822 kPa | 1503.5 ± 1.6
18859 kPa | 1503.7 ± 1.6
18888 kPa | 1503.6 ± 1.6
18925 kPa | 1503.8 ± 1.6
18953 kPa | 1503.9 ± 1.6
18981 kPa | 1504.1 ± 1.6
19018 kPa | 1504.2 ± 1.6
19055 kPa | 1504.4 ± 1.6
19084 kPa | 1504.5 ± 1.6
19116 kPa | 1504.5 ± 1.6
19145 kPa | 1504.6 ± 1.6
19183 kPa | 1504.8 ± 1.6
19210 kPa | 1505 ± 1.6
19243 kPa | 1505 ± 1.6
19282 kPa | 1505.2 ± 1.6
19320 kPa | 1505.4 ± 1.6
19349 kPa | 1505.5 ± 1.6
19392 kPa | 1505.6 ± 1.6
19430 kPa | 1505.9 ± 1.6
19460 kPa | 1505.8 ± 1.6
